Measurements from the supplement of paper PMC10307832.

Legend:
Assay in all cases: relative viability (nuclei count vs DMSO), 5 days (fraction); higher = more cells survive
[1] = compound: Cn1nnc2c(C(N)=O)ncn2c1=O [Temozolomide] + CCNC(=O)c1noc(-c2cc(C(C)C)c(O)cc2O)c1-c1ccc(CN2CCOCC2)cc1 [Luminespib] (partner 0.01 µM)
In short: (§1)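 A single step with final 0.05% Triton X-100, 1% formaldehyde and 1 ug/ml Hoechst fixed the cells and stained nuclei 5 days after treatment. Lung cancer cell lines in 1536-well plates had been treated by pin tool the day after seeding with one drug alone or a fixed anchor-drug dose plus five library-drug doses (not always all listed) in √10 steps, and nuclei were counted on 4× images. Relative viability is the ratio of nuclei in treated wells to nuclei in vehicle wells, taken as the median of duplicate plates.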

[2] = compound: Cn1nnc2c(C(N)=O)ncn2c1=O [Temozolomide] + Cc1nc(NC(=O)N2CCC[C@H]2C(N)=O)sc1-c1ccnc(C(C)(C)C(F)(F)F)c1 [Alpelisib] (partner 2 µM)
In short: as §1

[3] = compound: C[C@@H](C(=O)N[C@@H](C1CCCCC1)C(=O)N2CCC[C@H]2C(=O)N[C@@H]3[C@@H](CC4=CC=CC=C34)OCC#CC#CCO[C@@H]5CC6=CC=CC=C6[C@@H]5NC(=O)[C@@H]7CCCN7C(=O)[C@H](C8CCCCC8)NC(=O)[C@H](C)NC)NC [AZD5582] + CC1(C)CCC(c2ccc(Cl)cc2)=C(CN2CCN(c3ccc(C(=O)NS(=O)(=O)c4ccc(N[C@H](CCN5CCOCC5)CSc5ccccc5)c(S(=O)(=O)C(F)(F)F)c4)cc3)CC2)C1 [Navitoclax] (partner 0.5 µM)
In short: as §1

[4] = compound: C[C@@H](C(=O)N[C@@H](C1CCCCC1)C(=O)N2CCC[C@H]2C(=O)N[C@@H]3[C@@H](CC4=CC=CC=C34)OCC#CC#CCO[C@@H]5CC6=CC=CC=C6[C@@H]5NC(=O)[C@@H]7CCCN7C(=O)[C@H](C8CCCCC8)NC(=O)[C@H](C)NC)NC [AZD5582] + N=C(N)NC(=N)NCCc1ccccc1 [Phenformin] (partner 250 µM)
In short: as §1

Cell Line | relative viability ([1]; first compound 0.2 µM) | relative viability ([1]; first compound 0.6325 µM) | relative viability ([1]; first compound 2 µM) | relative viability ([1]; first compound 6.325 µM) | relative viability ([1]; first compound 20 µM) | relative viability ([2]; first compound 0.2 µM) | relative viability ([2]; first compound 0.6325 µM) | relative viability ([2]; first compound 2 µM) | relative viability ([2]; first compound 6.325 µM) | relative viability ([2]; first compound 20 µM) | relative viability ([3]; first compound 0.001581 µM) | relative viability ([3]; first compound 0.005 µM) | relative viability ([3]; first compound 0.01581 µM) | relative viability ([3]; first compound 0.05 µM) | relative viability ([4]; first compound 0.001581 µM) | relative viability ([4]; first compound 0.005 µM) | relative viability ([4]; first compound 0.01581 µM) | relative viability ([4]; first compound 0.05 µM)
201T | 1.11 | 1.07 | 1.05 | 1.02 | 0.985 | 0.977 | 1.05 | 1.04 | 1.04 | 0.985 | 1.21 | 1.23 | 1.12 | 1.31 | 0.459 | 0.478 | 0.406 | 0.579
A549 |  |  |  |  |  | 0.828 | 0.738 | 0.69 | 0.738 | 0.773 | 1.24 | 1.26 | 1.2 | 1.14 | 0.172 | 0.127 | 0.152 | 0.278
A-427 | 0.699 | 0.803 | 0.799 | 0.618 | 0.394 | 1.05 | 1.06 | 1.05 | 0.878 | 0.547 | 0.779 | 0.831 | 0.896 | 0.756 | 0.265 | 0.322 | 0.248 | 0.206
ABC-1 | 0.507 | 0.439 | 0.788 | 0.551 | 0.553 | 1.19 | 1.17 | 1.15 | 1.1 | 0.829 |  |  |  |  | 0.239 | 0.241 | 0.23 | 0.251
BEN | 0.323 | 0.323 | 0.462 | 0.233 | 0.228 | 0.914 | 1.29 | 0.939 | 0.977 | 0.757 | 0.0668 | 0.0512 | 0.0565 | 0.0544 | 0.278 | 0.249 | 0.301 | 0.27
CAL-12T | 0.27 | 0.518 | 0.862 | 0.115 | 0.723 | 1.11 | 1.22 | 1.14 | 1.06 | 1.18 |  | 0.531 | 1.26 | 0.854 | 0.354 | 0.27 | 0.408 | 0.222
COR-L23 | 0.639 | 0.669 | 0.737 | 0.696 | 0.612 | 0.957 | 0.851 | 0.859 | 0.752 | 0.662 | 0.963 | 1.07 | 1 | 1.22 | 0.42 | 0.418 | 0.385 | 0.521
COR-L 105 | 0.798 | 0.781 | 1.13 | 0.561 | 1.04 | 0.915 | 1.03 | 1.15 | 1.07 | 1.02 | 0.8 | 0.657 | 0.746 | 0.813 | 0.503 | 0.651 | 0.392 | 0.496
Calu-6 |  |  |  |  |  | 1.03 | 0.989 | 0.984 | 0.973 | 0.977 | 0.718 | 0.635 | 0.871 | 0.467 |  |  |  | 
ChaGo-K-1 | 0.679 | 0.625 | 0.785 | 0.557 | 0.556 |  |  |  |  |  | 0.977 | 1.18 | 0.797 | 0.994 | 0.445 | 0.54 | 0.4 | 0.513
EBC-1 |  |  |  |  |  | 0.982 | 0.812 | 0.918 | 0.769 | 0.871 | 0.394 | 0.408 | 0.4 | 0.373 |  |  |  | 
EKVX | 0.364 | 0.873 | 0.888 | 0.829 | 0.714 | 0.335 | 0.935 | 0.856 | 0.886 | 0.656 | 0.878 | 1.01 | 0.798 | 0.959 | 0.217 | 0.23 | 0.196 | 0.228
EMC-BAC-2 | 1.11 | 1.18 | 1.21 | 1.12 | 1.23 | 0.743 | 0.731 | 0.743 | 0.75 | 0.691 | 1.07 | 0.984 | 1.15 | 0.62 | 0.405 | 0.508 | 0.418 | 0.335
EPLC-272H | 0.234 | 0.279 | 0.304 | 0.707 | 0.446 | 0.727 | 1.08 | 0.947 | 0.849 | 0.664 | 0.608 | 0.743 | 1.05 | 0.208 | 0.0525 |  | 0.233 | 0.0492
H3255 |  | 0.991 | 0.946 | 0.868 | 0.28 |  | 0.686 | 0.599 | 0.755 | 0.146 | 0.479 | 0.59 | 0.375 | 0.213 | 0.392 | 0.326 | 0.34 | 0.353
HARA | 0.681 | 0.801 | 0.835 | 0.788 | 0.697 | 0.72 | 0.945 | 0.81 | 0.773 | 0.666 | 1.11 | 1.07 | 1.14 | 1.12 | 0.415 | 0.501 | 0.493 | 0.403
HCC-15 | 0.347 | 0.356 | 0.314 | 0.218 | 0.271 | 0.903 | 0.947 | 0.898 | 0.993 | 0.834 | 0.629 | 0.675 | 0.675 | 0.619 | 0.391 | 0.437 | 0.31 | 0.402
HCC-44 | 0.634 | 1.05 | 1.12 | 0.897 | 0.966 | 0.811 | 0.842 | 0.868 | 0.786 | 0.717 | 0.919 | 0.692 | 1.01 | 0.581 | 0.169 | 0.149 | 0.105 | 0.145
HCC-78 |  |  |  |  |  | 0.232 | 0.343 | 0.348 | 0.356 | 0.284 | 0.69 | 0.948 | 0.775 | 0.617 | 0.606 | 0.664 | 0.389 | 0.567
